According to patent US8008007B2, “S-adenosyl-L-methionine analogs with extended activated groups for transfer by methyltransferases” (RWTH Aachen, priority 2005, dated 2011):

Assays:
[1] = biological target: T1, M.HhaI-Q82A (Haemophilus parahaemolyticus, UniProt P05102, Q82A); assay: DNA protection assay with M.HhaI variant Q82A on phage lambda DNA; assay type: biochemical; conditions: 1.16 μg phage lambda DNA, cofactor 300 μM, 37° C. for 4 h, then R.Hin6I; pH 7.4 (pH 6.0 for cofactor 6)
T1 construct: made in house
T1 sequence (P05102 whole entry Q82A): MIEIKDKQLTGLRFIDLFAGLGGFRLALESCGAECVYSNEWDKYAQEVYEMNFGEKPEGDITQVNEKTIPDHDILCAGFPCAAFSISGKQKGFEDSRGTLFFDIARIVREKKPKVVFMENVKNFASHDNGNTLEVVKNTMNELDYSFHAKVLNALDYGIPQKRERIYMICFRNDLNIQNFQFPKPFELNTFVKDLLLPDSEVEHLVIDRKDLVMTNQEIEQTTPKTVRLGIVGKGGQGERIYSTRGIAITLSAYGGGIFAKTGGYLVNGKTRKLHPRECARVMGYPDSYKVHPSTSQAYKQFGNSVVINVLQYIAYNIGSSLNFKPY
Source text: (§1) Transfer kinetics of the activated ethyl (—CH2CH3), propyl (—CH2CH2CH3), prop-2-enyl (—CH2CH═CH2), prop-2-ynyl (—CH2C≡CH), but-2-ynyl (—CH2C≡CCH3), pent-2-ynyl (—CH2C≡CCH2CH3) and benzyl group (—CH2C6H5) from cofactors 3-9 by the DNA adenine-N6 methyltransferase M.TaqI and its variant V21 G, the DNA cytosine-C5 methyltransferase M.HhaI and its variant Q82A, the DNA cytosine-N4 methyltransferase M.BcnIB and the DNA cytosine-C5 methyltransferase M.SssI variant Q142A to phage lambda DNA (48502 base pairs) were investigated using a DNA protection assay. This assay makes use of the fact that DNA methyltransferase-catalyzed modifications of nucleobases within the recognition sequences of restriction endonucleases can protect the DNA against fragmentation by these enzymes. […] Unmodified DNA containing 5′-TCGA-3′ recognition sequences is readily fragmentated by R.TaqI. After DNA modification by M.TaqI in the presence of a cofactor with an activated group Z—R modified 5′-TCGA^Z—R-3′ sequences are formed and, as a result, R.TaqI is unable to fragment the modified DNA. Occurrence of fragmentation is then analyzed by agarose gel electrophoresis.
By varying the amounts of DNA methyltransferase, this assay is used to investigate the enzymatic activities of the different DNA methyltransferases with cofactors 3-9 and compare them to the enzymatic activities with the natural cofactor 1. The minimal amount of DNA methyltransferase needed to fully protect 1 μg of phage lambda DNA against restriction endonuclease fragmentation under the given experimental conditions is defined as one enzyme unit (u).
Afterwards, the reactions were stopped by heating to 80° C. for 10 min. […] Parallel control experiments were performed with phage lambda DNA in the absence of M.HhaI and in the presence of M.HhaI (278 ng).
The DNA protection assay with the M.HhaI variant Q82A (see Example 2B) was performed as described for the wild type enzyme (Example 3B.1).

[2] = biological target: T2, M.SssI-Q142A (Spiroplasma monobiae, UniProt P15840, Q142A); assay: DNA protection assay with M.SssI variant Q142A on phage lambda DNA; assay type: biochemical; conditions: 1 μg phage lambda DNA, cofactor 300 μM, 37° C. for 4 h, then R.BstUI
T2 construct: made in house
T2 sequence (P15840 whole entry Q142A): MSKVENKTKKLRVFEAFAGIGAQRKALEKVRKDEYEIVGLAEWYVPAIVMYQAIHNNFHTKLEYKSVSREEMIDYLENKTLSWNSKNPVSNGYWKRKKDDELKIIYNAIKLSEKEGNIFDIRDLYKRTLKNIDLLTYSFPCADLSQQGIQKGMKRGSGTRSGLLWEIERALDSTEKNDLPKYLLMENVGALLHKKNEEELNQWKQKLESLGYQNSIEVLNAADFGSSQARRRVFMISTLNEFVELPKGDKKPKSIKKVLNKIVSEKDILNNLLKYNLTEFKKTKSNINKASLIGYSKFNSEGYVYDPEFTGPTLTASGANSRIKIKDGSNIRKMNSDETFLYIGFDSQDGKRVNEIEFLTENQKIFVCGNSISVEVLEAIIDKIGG
Source text: as §1
By varying the amounts of DNA methyltransferase, this assay is used to investigate the enzymatic activities of the different DNA methyltransferases with cofactors 3-9 and compare them to the enzymatic activities with the natural cofactor 1. […]
Two fold serial dilutions (20 μL) of M.SssI-Q142A (starting with 3300 ng, 73 pmol) in buffer (10 mM Tris hydrochloride, 50 mM sodium chloride, 1 mM dithiothreitol, pH 7.9), phage lambda DNA (1 μg, 31.3 fmol, 3113 5′-CG-3′ recognition sequences, […] recognition sequences, MBI Fermentas) and the natural cofactor 1 (300 μM) or cofactor analogs 5 and 7 (300 μM) were incubated at 37° C. for 4 h. […] Loading buffer (10 μL, 0.25% bromphenol blue, 30% glycerol) was added to each sample, and aliquots (15 μL) were analyzed for the degree of protection by agarose gel (1%) electrophoresis.

[3] = tested on: M.BcnIB; assay: Modification of cytosine-N4 in duplex oligodeoxynucleotide V.VI by M.BcnIB, nucleoside analysis by HPLC/ESI-MS; assay type: biochemical; conditions: duplex V.VI 12.5 μM, cofactor 300 μM, enzyme 15 μM, 37° C. over night
Source text: Transfer of the activated ethyl (CH2CH3), propyl (CH2CH2CH3), prop-2-enyl (CH2CHCH2), prop-2-ynyl group (CH2CCH), but-2-ynyl (CH2CCCH3), pent-2-ynyl (CH2CCCH2CH3) or benzyl group (CH2C6H5) from cofactors 3-9 by the DNA adenine-N6 methyltransferase M.TaqI, the DNA cytosine-C5 methyltransferase M.HhaI variant Q82A or the DNA cytosine-N4 methyltransferase M.BcnIB to DNA was first investigated using short duplex oligodeoxynucleotides as substrates. After enzymatic transfer the duplex oligodeoxynucleotides were enzymatically fragmented and the resulting modified nucleosides were analyzed by reversed-phase HPLC coupled with ESI-MS.
The duplex oligodeoxynucleotide V.VI was produced by mixing equal molar amounts (2.5 nmol) of complementary single-stranded oligodeoxynucleotide V (5′-[…]-3′) (SEQ ID NO. 3) and VI (5′-[…]-3′) (SEQ ID NO. 4) in water, heating at 85° C. for 5 min and slow cooling to room temperature. […] M.BcnIB was denatured by heating to 80° C. for 10 min and incubated with proteinase K at 55° C. 1 h. Hydrolysis products were removed using gel filtration column (G-25 column, Amersham Biosciences).
The obtained solutions of duplex oligodeoxynucleotides were treated with buffer ( 1/10 volume, 100 mM Tris-HCl, 100 mM magnesium chloride, 10 mM zinc acetate, pH 7.5) containing Nuclease P1 (1500 u, Sigma) and calf intestine alkaline phosphatase (30 u, MBI Fermentas) and incubated at 37° C. for 4 h. Nucleosides were analyzed by reversed-phase HPLC (Discovery C18 150×2.1 mm, 5 μm, equipped with a Supelguard Discovery C18 20×2.1 mm, 5 μm, pre-column, Supelco, Germany) coupled with a mass spectrometric detector (HP 1100 series ESI-MS equipped with single quadruple). Compounds were eluted with methanol (0% for 6 min, followed by linear gradients to 56% in 15 min and to 80% in 1 min) in ammonium formate buffer (20 mM, pH 4.25 for cofactors 3, 4, 6 and pH 3.5 for cofactor 5) at a flow of 0.3 mL/min and detected at 280 nm. For on-line mass spectrometric detection post-column mobile phase modification (equal co-flow of 96% methanol, 4% formic acid and 1 mM sodium hydroxide) was used to enhance the detection efficiency of 2′-deoxycytidine and its derivatives. Mass spectra were recorded in 50-600 m/z range.

[4] = biological target: T3, M.HhaI-Q82A/N304A (Haemophilus parahaemolyticus, UniProt P05102, N304A/Q82A); assay: DNA protection assay with M.HhaI variant Q82A/N304A on phage lambda DNA; assay type: biochemical; conditions: 1.16 μg phage lambda DNA, cofactor 300 μM, 37° C. for 1 h, enzyme from 1100 ng
T3 construct: made in house
T3 sequence (P05102 whole entry Q82A/N304A): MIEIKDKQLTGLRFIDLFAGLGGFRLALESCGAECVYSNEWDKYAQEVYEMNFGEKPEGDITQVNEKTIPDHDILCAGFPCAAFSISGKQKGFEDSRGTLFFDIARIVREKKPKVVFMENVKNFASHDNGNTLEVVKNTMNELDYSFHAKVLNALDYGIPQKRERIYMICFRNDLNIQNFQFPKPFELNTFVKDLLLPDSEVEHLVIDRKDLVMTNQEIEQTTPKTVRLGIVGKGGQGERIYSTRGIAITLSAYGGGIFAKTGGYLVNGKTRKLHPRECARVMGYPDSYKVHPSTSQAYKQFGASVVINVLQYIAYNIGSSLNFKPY
Procedure: Afterwards, the reactions were stopped by heating to 80° C. for 10 min. […] Parallel control experiments were performed with phage lambda DNA in the absence of M.HhaI-Q82A/N304A and in the presence of M.HhaI-Q82A/N304A (1100 ng).

[5] = tested on: pBR322 plasmid DNA; conditions: modification with M.TaqI or M.HhaI-Q82A/N304A, cofactor 300 μM, 4 h

SMILES | specific activity of M.HhaI-Q82A with the cofactor [1] [u/μg] | specific activity of M.SssI-Q142A with the cofactor [2] [u/μg] | cofactor function for M.BcnIB (transfer of group Z-R to cytosine-N4) [3] | protection of phage lambda DNA against R.Hin6I fragmentation [4] | two-step labeling of amino-modified pBR322 DNA with fluorescein N-hydroxysuccinimidyl ester [5]
CC#CC[S+](CCC(N)C(=O)O)CC1OC(n2cnc3c(N)ncnc32)C(O)C1O (mixture of isomers) [Cofactor 7] | 58 | 0.6 | – | – | –
CC[S+](CCC(N)C(=O)O)CC1OC(n2cnc3c(N)ncnc32)C(O)C1O (stereo not drawn) [Cofactor 3] | 7 | – | functions as a cofactor | – | –
CCC[S+](CCC(N)C(=O)O)CC1OC(n2cnc3c(N)ncnc32)C(O)C1O (stereo not drawn) [Cofactor 4] | 0 | – | does not function as a cofactor | – | –
C=CC[S+](CCC(N)C(=O)O)CC1OC(n2cnc3c(N)ncnc32)C(O)C1O (stereo not drawn) [Cofactor 5] | 29 | 1.2 | functions as a cofactor | – | –
C#CC[S+](CCC(N)C(=O)O)CC1OC(n2cnc3c(N)ncnc32)C(O)C1O (stereo not drawn) [Cofactor 6] | – | – | does not function as a cofactor | – | –
NCCCC(=O)NCC#CC[S+](CCC(N)C(=O)O)CC1OC(n2cnc3c(N)ncnc32)C(O)C1O (stereo not drawn) [Cofactor 10] | – | – | – | almost protected phage lambda DNA | labeling is sequence-specific
